Source: patent US8497074B2, “Granin proteins as markers of heart disease” (Universitetet I Oslo, priority 2008, dated 2013)
Entries after “also recorded” stand apart in the source; their conditions may differ.

Tests used:
Type in all cases: cell-based
[1] = system: neonatal rat cardiomyocytes; assay: CgB gene expression in isolated neonatal cardiomyocytes after stimulation with signaling agents (qRT-PCR)
Procedure: (§1) Neonatal rat cardiomyocytes were isolated from neonatal (1-3 days) Wistar rats (Taconic, Skensved, Denmark) as previously reported. After 24 hours starvation, the cardiomyocytes were stimulated for 24 hours with the following agents; Forskolin [1 and 10 μM], norepinephrine [100 μM], endothelin [77 ng/ml] and angiotensin II [1 μM] (all Sigma, Europe), tumor necrosis factor-α (TNF-α) [10 ng/ml] (BioSource International Camarillo, Calif., USA), interleukin-1β (IL-1β) [10 ng/ml], monocyte chemoattractant protein-1 (MCP-1) [200 ng/ml], transforming growth factor-β (TGF-β) [10 ng/ml] (all R&D Systems, Minneapolis, Minn., USA), and a C-terminal CgB peptide—CgB312-323 [1, 10 and 100 ng/ml] (053-20, Phoenix Pharmaceuticals, Burlingame, Calif., USA).
(§2) Total RNA was isolated from neonatal rat cardiomyocytes according to the protocol (RNeasy mini kit, Qiagen, Valencia, Calif., USA). Along with lysis buffer, the Mixer Mill 300 System (RETSCH, Haan, Germany) and stainless steel beads (Qiagen, Hilden, Germany) were used for mechanical disruption of the cells. RNA concentrations and quality were assessed as earlier described with the NanoDrop system and an Agilent BioAnalyzer 2100. Reverse transcription reactions were performed with iScript Select cDNA Synthesis Kit (Bio-Rad Laboratories, Inc., Hercules, Calif., USA). Gene expression was determined by qRT-PCR with pre-made TaqMan Gene Expression Assays from Applied Biosystems: CgB (Rn01514853—1), BNP (Rn00580641—1), Rp14 (Rn00821091—1). Gene expression in stimulated cells is presented as change vs. gene expression in PBS stimulated cells (normalized vs. control). All samples were run in triplicate and Rp14 gene expression was used as an internal control.
as §1, with “factor-α(TNF-α)” for “factor-α (TNF-α)”, “peptide—CgB312-323 and secretoneurin” for “peptide—CgB312-323”, “(053-20, 047-95,” for “(053-20,”
as §2, with “Biosystems: SgII (Rn01400686—1),” for “Biosystems:”

[2] = system: neonatal rat cardiomyocytes; assay: SgII gene expression in isolated neonatal cardiomyocytes after stimulation with signaling agents (qRT-PCR); conditions: stimulated for 24 hours, vs. PBS stimulated cells
Procedure: as §1, with “factor-α(TNF-α)” for “factor-α (TNF-α)”, “peptide—CgB312-323 and secretoneurin” for “peptide—CgB312-323”, “(053-20, 047-95,” for “(053-20,”
as §2, with “Biosystems: SgII (Rn01400686—1),” for “Biosystems:”

[3] = system: neonatal rat cardiomyocytes; assay: BNP gene expression in isolated neonatal cardiomyocytes after stimulation with signaling agents (qRT-PCR); conditions: stimulated for 24 hours, vs. PBS stimulated cells
Procedure: as §1, §2
as §1, with “factor-α(TNF-α)” for “factor-α (TNF-α)”, “peptide—CgB312-323 and secretoneurin” for “peptide—CgB312-323”, “(053-20, 047-95,” for “(053-20,”
as §2, with “Biosystems: SgII (Rn01400686—1),” for “Biosystems:”

[4] = neonatal rat cardiomyocytes, stimulated for 24 hours, vs. PBS stimulated cells

C=C[C@@]1(C)CC(=O)[C@]2(O)[C@@]3(C)[C@@H](O)CCC(C)(C)[C@@H]3[C@H](O)[C@H](OC(C)=O)[C@@]2(C)O1 [Forskolin]
CgB production (gene expression) increase [1, 4]: 60%
SgII gene expression increase [2]: 40%

CC[C@H](C)[C@H](NC(=O)[C@H](CC(=O)O)NC(=O)[C@H](CC(C)C)NC(=O)[C@H](Cc1c[nH]cn1)NC(=O)[C@@H]1CSSC[C@H](N)C(=O)N[C@@H](CO)C(=O)N[C@H]2CSSC[C@H](NC(=O)[C@H](CCC(=O)O)NC(=O)[C@H](CCCCN)NC(=O)[C@H](CC(=O)O)NC(=O)[C@H](CCSC)NC(=O)[C@H](CC(C)C)NC(=O)[C@H](CO)NC(=O)[C@H](CO)NC2=O)C(=O)N[C@@H](C(C)C)C(=O)N[C@@H](Cc2ccc(O)cc2)C(=O)N[C@@H](Cc2ccccc2)C(=O)N1)C(=O)N[C@H](C(=O)N[C@@H](Cc1c[nH]c2ccccc12)C(=O)O)[C@@H](C)CC [endothelin]
change in BNP gene expression (in words) [3]: increased
change in CgB gene expression (in words) [1, 4]: no significant change
change in SgII gene expression (in words) [2]: no significant change

NC[C@H](O)c1ccc(O)c(O)c1 [norepinephrine]
change in BNP gene expression (in words) ([3]; listed as NA): increased; also recorded: most powerful stimulus; also recorded: potent agents for upregulating
CgB gene expression, times upregulated ([1]; isolated cardiomyocytes, change vs. PBS stimulated cells (FIG. 8A)): 3 ×
CgB gene expression, fold increase ([1]; neonatal rat cardiomyocytes, stimulated for 24 hours, change vs. PBS stimulated cells): 3 fold
change in CgB gene expression (in words) ([1]; neonatal rat cardiomyocytes, stimulated for 24 hours, vs. PBS stimulated cells, listed as NA): upregulated; also recorded: potent agents for upregulating
SgII gene expression increase [2]: 55%
change in SgII gene expression (in words) ([2]; listed as NA): potent agents for upregulating; also recorded: increased

angiotensin II (DRVYIHPF; Angiotensin-2; UniProt P01019 25-32, looked up)
change in BNP gene expression (in words) [3]: increased
change in CgB gene expression (in words) [1, 4]: significantly upregulated
change in CgB gene expression (in words) ([1]; neonatal rat cardiomyocytes, stimulated for 24 hours, vs. PBS stimulated cells, listed as AT II): upregulated
change in CgB gene expression (in words) ([1]; neonatal rat cardiomyocytes, stimulated for 24 hours, vs. PBS stimulated cells, listed as Angiotensin II): significantly upregulated
change in SgII gene expression (in words) [2]: no significant change

interleukin-1β
change in CgB gene expression (in words) [1, 4]: no significant change
change in SgII gene expression (in words) [2]: no significant change

monocyte chemoattractant protein-1
change in CgB gene expression (in words) [1, 4]: significantly upregulated
change in CgB gene expression (in words) ([1]; neonatal rat cardiomyocytes, stimulated for 24 hours, vs. PBS stimulated cells, listed as MCP-1): upregulated
change in SgII gene expression (in words) [2]: no significant change

secretoneurin: 33 amino acid peptide fragment of SgII, 047-95, Phoenix Pharmaceuticals (TNEIVEEQYTPQSLATLESVFQELGKLTGPNNQ; Secretoneurin; UniProt P13521 182-214, looked up)
change in BNP gene expression (in words) [3]: did not affect
change in CgB gene expression (in words) [1, 4]: did not affect
change in SgII gene expression (in words) [2]: did not affect
change in SgII gene expression (in words) ([2]; listed as SgII): no significant change

transforming growth factor-β
change in BNP gene expression (in words) ([3]; listed as TGF-β): increased; also recorded: potent agents for upregulating
change in CgB gene expression (in words) [1, 4]: significantly upregulated
change in CgB gene expression (in words) ([1]; neonatal rat cardiomyocytes, stimulated for 24 hours, vs. PBS stimulated cells, listed as TGF-β): upregulated; also recorded: potent agents for upregulating
SgII gene expression increase [2]: 85%
change in SgII gene expression (in words) ([2]; listed as TGF-β): potent agents for upregulating; also recorded: increased

tumor necrosis factor-α
change in CgB gene expression (in words) [1, 4]: no significant change
change in SgII gene expression (in words) [2]: no significant change
